Experimental data: patent US5977298A, “Calcitonin derivatives” (Kvowa Hakko Kogyo Co., Ltd., priority 1995, dated 1999)
Bridges are numbered along the chain shown (N, C = ends). Where no end group is shown, it is not given here. [ ]: non-standard residue; d: D form. Gla = N[C@@H](CC(C(=O)O)C(=O)O)C(=O)O; Hyp = O=C(O)[C@@H]1C[C@@H](O)CN1; βAla = NCCC(=O)O

Assays:
[1] = system: Osteoclast-like multinucleated cells (osteoclasts); assay: Calcitonin-like biological activity: bone resorption pit formation by osteoclasts on ivory pieces; assay type: cell-based, mouse; conditions: 48 hours
Description: 1-1 Preparation of Osteoclasts
Osteoclast-like multinucleated cells which were derived by coculturing mouse osteoblasts and bone marrow cells on collagen gel according to the method described in Akatsu T. et al., J. Bone Miner. Res., 7, 1297-1306 (1992) were used as osteoclasts. That is, osteoblasts derived from mouse vault of skull (5×10^5 cells) were put in a 100 mm dish (IWAKI) collagen-coated with Cellmatrix Type I-A (Nitta Gelatin Co., Ltd.) and cultured for one day in a CO2 incubator (37° C., 5% CO2) [medium: αMEM+10% FCS (both by GIBCO Co., Ltd.)]. After the medium was removed, mouse bone marrow cells (6×10^6 cells) were put on the osteoblasts and 10^-8 M calcitriol (Wako Pure Chemical Industries, Ltd.) and 10^-7 M dexamethasone (Sigma Chemical Co.) were added thereto. TRAP-positive multinucleate cells (osteoclast-like cells) which were obtained 7 days after the inoculation of osteoblasts were used as osteoclasts.
1-2 Culturing of Osteoclasts on Ivory Pieces
After removal of the medium from the dish, and rinsing with PBS(-), a mixture of collagenase and dispase (collagenase: Wako Pure Chemical Industries, Ltd., dispase: Godo Shusei Co., Ltd.) was added thereto to suspend the cells. The cell suspension was put into a tube and centrifuged at 800 rpm for 5 minutes. After removal of the supernatant by suction, the cells were suspended again in αMEM and the suspension was put on ivory pieces (diameter: 4 mm, thickness: 20 μm) in 100 μl portions. The ivory pieces were left to stand in a CO2 incubator for 2 hours to attach the osteoclasts thereto, and then taken out and gently transferred to a 48-well plate (IWAKI) to which a medium containing a test compound had been added in advance to determine the bone resorption activity 48 hours later according to the method described below. The medium containing the test compound was prepared by adding the test compound dissolved in HEPES buffer to the medium described in 1-1 to give the final concentrations shown in Tables 2 and 3.
1-3 Determination of Bone Resorption Activity by Staining of Ivory Pieces and Measurement of Bone Resorption Pit Area
The ivory pieces taken out of the medium were put into a tube containing 0.1 N aqueous ammonia and subjected to sonication treatment with a sonicator for 20-30 seconds to remove the osteoclasts. After being washed with distilled water to remove ammonia, the ivory pieces were dipped in a hematoxylin-eosin staining solution to stain resorption pits. The bone resorption pit formation rate was calculated based on microphotographs of stained ivory pieces according to the following equation by the use of an image analyzer. [formula]
The bone resorption inhibitory activity of test compounds were calculated according to the following equation. [formula]
A; Bone resorption pit formation rate obtained using no test compound
B; Bone resorption pit formation rate obtained using a test compound

male SD strain rats = assay: Serum calcium content after intravenous administration to rats; assay type: in vivo, rat; conditions: 60 minutes after administration; for Serum calcium Content: 0.5 ml i.v. tail vein, value ± standard error
Description: Four-weeks-old male SD strain rats (Clea Japan, Inc.) were fasted for 24 hours before the test and were offered in groups each consisting of 8 rats. Each rat of the control group was given 0.5 ml of physiological saline (Otsuka Pharmaceutical Co., Ltd.) containing 1% BSA (Sigma Chemical Co.) by intravenous administration through the tail vein. In the same manner, each rat of Compound 9-administered groups was given 0.5 ml of a solution of Compound 9 in physiological saline containing 1% BSA. Blood was collected from the right femoral artery of a rat 60 minutes after the administration and was centrifuged at 4° C. at 3000 rpm for 15 minutes to obtain a blood serum, and the serum calcium content was determined with calcium C-test WAKO (Wako Pure Chemical Industries, Ltd.). The results are expressed in terms of value ± standard error, and the difference was judged to be statistically significant at P <0.05 according to the Williams-Wilcoxon test.

Compound 1: SEQ ID NO:1; cyclic peptide Compound 15 condensed to the N-terminus of the Compound 17 peptide (GNWHGTAPDWLGKLSQELHKLQTYPRTNTGSGTP-NH2; lactam N-9)
Bone resorption inhibitory activity (% inhibition) ([1]; compound concentration 10^-7 M): 61%

Compound 2: SEQ ID NO:2; cyclic peptide Compound 16 condensed to the N-terminus of the Compound 18 peptide (GNWHGTAPDVLGKLSQELHKLQTYPRTNTGSGTP-NH2; lactam N-9)
Bone resorption inhibitory activity (% inhibition) ([1]; compound concentration 10^-8 M): 36%

Compound 3: SEQ ID NO:3; cyclic peptide Compound 16 condensed to the N-terminus of the Compound 19 peptide (GNWHGTAPDVLAALAAALAALAALPRTNTGSGTP-NH2; lactam (positions not given here); not fully specified (bridges); printed as ⌐GNWHGTAPDVLAALAAALAALAALPRTNTGSGTP—NH$_2$)
Bone resorption inhibitory activity (% inhibition) ([1]; compound concentration 10^-6 M): 65%

Compound 4: SEQ ID NO:4; cyclic peptide Compound 16 condensed to the N-terminus of the Compound 20 peptide (GNWHGTAPDMLGTYTQDFNKFHTFPQTAIGVGAP-NH2; lactam (positions not given here); not fully specified (bridges); printed as ⌐GNWHGTAPDMLGTYTQDFNKFHTFPQTAIGVGAP—NH$_2$; also: cyclic peptide Compound 16 condensed at N-terminus)
Bone resorption inhibitory activity (% inhibition) ([1]; compound concentration 10^-6 M): 29%

Compound 5: SEQ ID NO:5; cyclic peptide Compound 16 condensed to the N-terminus of the Compound 21 peptide (GNWHGTAPDGLGSLTEVLAKLAAYPRTNTGSGTP-NH2; lactam (positions not given here); not fully specified (bridges); printed as ⌐GNWHGTAPDGLGSLTEVLAKLAAYPRTNTGSGTP—NH$_2$; also: cyclic peptide Compound 16 condensed at N-terminus)
Bone resorption inhibitory activity (% inhibition) ([1]; compound concentration 10^-6 M): 35%

Compound 6: SEQ ID NO:6; cyclic peptide Compound 16 condensed to the N-terminus of the Compound 22 peptide (GNWHGTAPDGLGSLTEVLAKLAAYPRSQTGAGTP-NH2; lactam (positions not given here); not fully specified (bridges); printed as ⌐GNWHGTAPDGLGSLTEVLAKLAAYPRSQTGAGTP—NH$_2$; also: cyclic peptide Compound 16 condensed at N-terminus)
Bone resorption inhibitory activity (% inhibition) ([1]; compound concentration 10^-6 M): 29%

Compound 7: SEQ ID NO:7; cyclic peptide Compound 16 condensed to the N-terminus of the Compound 23 peptide (GNWHGTAPDGLGSLTEVLAKLAAY[Hyp]RTNTGSGT[Hyp]-NH2; lactam (positions not given here); not fully specified (bridges); also: cyclic peptide Compound 16 condensed at N-terminus)
Bone resorption inhibitory activity (% inhibition) ([1]; compound concentration 10^-8 M): 50%

Compound 8: SEQ ID NO:8; cyclic peptide Compound 16 condensed to the N-terminus of the Compound 24 peptide (GNWHGTAPDGLGSLTEVLAKLAAYPRTNT[βAla]SGTP-NH2; lactam (positions not given here); not fully specified (bridges); also: cyclic peptide Compound 16 condensed at N-terminus)
Bone resorption inhibitory activity (% inhibition) ([1]; compound concentration 10^-6 M): 39%

Compound 9: SEQ ID NO:9; cyclic peptide Compound 16 condensed to the N-terminus of the Compound 25 peptide (GNWHGTAPDGLGSLTEVLAKLAEYPRTNTGSGTP-NH2; lactam (positions not given here); not fully specified (bridges); printed as ⌐GNWHGTAPDGLGSLTEVLAKLAEYPRTNTGSGTP┐— NH$_2$; also: cyclic peptide Compound 16 condensed at N-terminus)
Serum calcium Content (male SD strain rats; compound concentration 1 μg/ml): 10.41 ± 0.13 mg/dL | Serum calcium Content (male SD strain rats; compound concentration 10 μg/ml): 10.20 ± 0.16 mg/dL | Serum calcium Content (male SD strain rats; compound concentration 100 μg/ml, P < 0.01 vs control): 7.54 ± 0.29 mg/dL | serum calcium content compared with that of the control group (male SD strain rats; concentration of 100 μg/l (so in the source), 0.5 ml i.v.): significantly lowered | Bone resorption inhibitory activity (% inhibition) ([1]; compound concentration 10^-6 M): 53%

Compound 10: SEQ ID NO:10; cyclic peptide Compound 16 condensed to the N-terminus of the Compound 26 peptide (GNWHGTAPDGLGSLT[Gla]VLAKLAEYPRTNTGSGTP-NH2; lactam (positions not given here); not fully specified (bridges); also: cyclic peptide Compound 16 condensed at N-terminus)
Bone resorption inhibitory activity (% inhibition) ([1]; compound concentration 10^-6 M): 27%

Compound 11: SEQ ID NO:11; cyclic peptide Compound 16 condensed to the N-terminus of the Compound 27 peptide (GNWHGTAPDGLGSLTEVLAKLA[Gla]YPRTNTGSGTP-NH2; lactam (positions not given here); not fully specified (bridges); also: cyclic peptide Compound 16 condensed at N-terminus)
Bone resorption inhibitory activity (% inhibition) ([1]; compound concentration 10^-7 M): 42%

Compound 13: SEQ ID NO:13; cyclic peptide Compound 16 condensed to the N-terminus of the Compound 29 peptide (GNWHGTAPDGLGSLTEVLAKLAEYP[dR]TNTGSGTP-NH2; lactam (positions not given here); not fully specified (bridges); printed as ⌐GNWHGTAPDGLGSLTEVLAKLAEYPrTNTGSGTP┐— NH$_2$; also: cyclic peptide Compound 16 condensed at N-terminus)
Bone resorption inhibitory activity (% inhibition) ([1]; compound concentration 10^-6 M): 35%

Compound 14: SEQ ID NO:14; cyclic peptide Compound 16 condensed to the N-terminus of the Compound 30 peptide (GNWHGTAPDGLGSLTEVLAKLAEYPKTNTGSGTP-NH2; lactam (positions not given here); not fully specified (bridges); printed as ⌐GNWHGTAPDGLGSLTEVLAKLAEYPKTNTGSGTP┐— NH$_2$; also: cyclic peptide Compound 16 condensed at N-terminus)
Bone resorption inhibitory activity (% inhibition) ([1]; compound concentration 10^-6 M): 40%

H-LGKLSQELHKLQTYPRTNTGSGTP-NH2 [Compound 17, reference compound]
Bone resorption inhibitory activity (% inhibition) ([1]; compound concentration 10^-7 M): 0%

H-Val-Leu-Ala-Ala-Leu-Ala-Ala-Ala-Leu-Ala-Ala-Leu-Ala-Ala-Leu-Pro-Arg-Thr-Asn-Thr-Gly-Ser-Gly-Thr-Pro-NH2 (H-VLAALAAALAALAALPRTNTGSGTP-NH2) [Compound 19, linear calcitonin-like peptide, comparison for Compound 3, reference compound]
Bone resorption inhibitory activity (% inhibition) ([1]; compound concentration 10^-6 M): 6%

H-Val-Leu-Gly-Lys-Leu-Ser-Gln-Glu-Leu-His-Lys-Leu-Gln-Thr-Tyr-Pro-Arg-Thr-Asn-Thr-Gly-Ser-Gly-Thr-Pro-NH2 (H-VLGKLSQELHKLQTYPRTNTGSGTP-NH2) [Compound 18, linear partial calcitonin peptide, comparison for Compound 2, reference compound]
Bone resorption inhibitory activity (% inhibition) ([1]; compound concentration 10^-8 M): 15%
